Experimental data reported in ChEMBL document CHEMBL3112578, “Synthesis and haemolytic activity of novel salts made of nicotine alkaloids and bile acids” (Bioorg Med Chem Lett, 2014).
Converted amounts (≈) assume the structure as drawn.

Key:
[1] = Hemolytic activity in human erythrocytes assessed as discocytic shape up to 1 mg/mL after 60 mins by SEM analysis; assay type: ADME, cell-based; details: erythrocyte, 1 h
[2] = Hemolytic activity in human erythrocytes assessed as increase in cell permeability up to 1 mg/mL after 60 mins; assay type: ADME, cell-based; details: erythrocyte, 1 h
[3] = Hemolytic activity in human erythrocytes assessed as induction of stomatocytic shape alteration at hemolysis start concentration after 60 mins by SEM analysis; assay type: cell-based; details: erythrocyte, 1 h
[4] = Hemolytic activity in human erythrocytes assessed as release of hemoglobin at 0.00001 mg/mL after 60 mins relative to control; assay type: ADME, cell-based, Erythrocyte; details: read-out: Activity
[5] = Hemolytic activity in human erythrocytes assessed as release of hemoglobin at 0.63 mg/mL after 60 mins relative to control; assay type: ADME, cell-based, Erythrocyte; details: read-out: Activity
[6] = Hemolytic activity in human erythrocytes assessed as release of hemoglobin after 60 mins; assay type: ADME, cell-based, Erythrocyte; details: 1 h; for Activity: human, erythrocyte; for IC50: Homo sapiens, Erythrocyte
[7] = Hemolytic activity in human erythrocytes assessed as release of hemoglobin at 0.75 mg/mL after 60 mins relative to control; assay type: ADME, cell-based, Erythrocyte; details: read-out: Activity
[8] = Hemolytic activity in human erythrocytes assessed as release of hemoglobin at 0.19 mg/mL after 60 mins relative to control; assay type: ADME, cell-based, Erythrocyte; details: read-out: Activity
[9] = Hemolytic activity in human erythrocytes assessed as release of hemoglobin at 0.0001 mg/mL after 60 mins relative to control; assay type: ADME, cell-based, Erythrocyte; details: read-out: Activity
[10] = Hemolytic activity in human erythrocytes assessed as release of hemoglobin at 0.67 mg/mL after 60 mins relative to control; assay type: ADME, cell-based, Erythrocyte; details: read-out: Activity
[11] = Hemolytic activity in human erythrocytes assessed as release of hemoglobin at 0.007 mg/mL after 60 mins relative to control
[12] = Hemolytic activity in human erythrocytes assessed as release of hemoglobin at 0.17 mg/mL after 60 mins relative to control; assay type: ADME, cell-based, Erythrocyte; details: read-out: Activity
[13] = Hemolytic activity in human erythrocytes assessed as induction of echinocytic shape alteration at hemolysis start concentration after 60 mins by SEM analysis; assay type: cell-based; details: erythrocyte, 1 h
[14] = Hemolytic activity in human erythrocytes assessed as induction of spheroechinocytic shape alteration at hemolysis start concentration after 60 mins by SEM analysis; assay type: cell-based; details: erythrocyte, 1 h
[15] = Hemolytic activity in human erythrocytes assessed as release of hemoglobin at 0.006 mg/mL after 60 mins relative to control; assay type: ADME, cell-based, Erythrocyte; details: read-out: Activity

| SMILES | Activity [2] | Activity [3] | Activity [6] | IC50 [6] [mg/L] | other results |
| --- | --- | --- | --- | --- | --- |
| CN1C(=[Se])CC[C@H]1c1cccnc1 | Non-toxic |  |  |  | Activity [1]: Non-toxic |
| CN1C(=S)CC[C@H]1c1cccnc1 | Non-toxic |  |  |  | Activity [1]: Non-toxic |
| CN1CCC[C@H]1c1cccnc1.C[C@H](CCC(=O)O)[C@H]1CC[C@H]2[C@@H]3CC[C@@H]4C[C@H](O)CC[C@]4(C)[C@H]3C[C@H](O)[C@]12C | Non-toxic | Toxic | Dose-dependent effect |  | hemolysis at 1 h, 1e-05 mg/mL [4]: 12.4%; hemolysis at 1 h, 0.63 mg/mL [5]: 5% |
| C[C@H](CCC(=O)O)[C@H]1CC[C@H]2[C@@H]3[C@H](O)C[C@@H]4C[C@H](O)CC[C@]4(C)[C@H]3C[C@H](O)[C@]12C [CHOLIC ACID] | Non-toxic |  |  |  | hemolysis at 1 h, 0.75 mg/mL [7]: 5% |
| CN1C(=[Se])CC[C@H]1c1cccnc1.C[C@H](CCC(=O)O)[C@H]1CC[C@H]2[C@@H]3CC[C@@H]4C[C@H](O)CC[C@]4(C)[C@H]3C[C@H](O)[C@]12C |  |  | Dose-dependent effect | 610 | hemolysis at 1 h, 0.19 mg/mL [8]: 5% |
| C[C@H](CCC(=O)O)[C@H]1CC[C@H]2[C@@H]3CC[C@@H]4C[C@H](O)CC[C@]4(C)[C@H]3CC[C@]12C [LITHOCHOLIC ACID] |  | Toxic |  | 9 (≈ 23.9 µM) | hemolysis at 1 h, 0.0001 mg/mL [9]: 5% |
| CN1C(=S)CC[C@H]1c1cccnc1.C[C@H](CCC(=O)O)[C@H]1CC[C@H]2[C@@H]3CC[C@@H]4C[C@H](O)CC[C@]4(C)[C@H]3C[C@H](O)[C@]12C | Non-toxic |  | Dose-dependent effect |  | hemolysis at 1 h, 0.67 mg/mL [10]: 5% |
| CN1CCC[C@H]1c1cccnc1 [NICOTINE] | Non-toxic |  |  |  | Activity [1]: Non-toxic |
| CN1CCC[C@H]1c1cccnc1.C[C@H](CCC(=O)O)[C@H]1CC[C@H]2[C@@H]3CC[C@@H]4C[C@H](O)CC[C@]4(C)[C@H]3CC[C@]12C |  | Toxic | Dose-dependent effect | 200 | hemolysis at 1 h, 1e-05 mg/mL [4]: 16.7%; hemolysis at 1 h, 0.007 mg/mL [11]: 5% |
| CN1CCC[C@H]1c1cccnc1.C[C@H](CCC(=O)O)[C@H]1CC[C@H]2[C@@H]3[C@H](O)C[C@@H]4C[C@H](O)CC[C@]4(C)[C@H]3C[C@H](O)[C@]12C | Non-toxic |  |  |  |  |
| C[C@H](CCC(=O)O)[C@H]1CC[C@H]2[C@@H]3CC[C@@H]4C[C@H](O)CC[C@]4(C)[C@H]3C[C@H](O)[C@]12C [SODIUM DEOXYCHOLATE] |  | Toxic |  |  | hemolysis at 1 h, 0.17 mg/mL [12]: 5% |
| CN1C(=S)CC[C@H]1c1cccnc1.C[C@H](CCC(=O)O)[C@H]1CC[C@H]2[C@@H]3CC[C@@H]4C[C@H](O)CC[C@]4(C)[C@H]3CC[C@]12C |  |  | Dose-dependent effect | 40 | Activity [13]: Toxic; Activity [14]: Toxic; hemolysis at 1 h, 1e-05 mg/mL [4]: 5% |
| CN1C(=[Se])CC[C@H]1c1cccnc1.C[C@H](CCC(=O)O)[C@H]1CC[C@H]2[C@@H]3CC[C@@H]4C[C@H](O)CC[C@]4(C)[C@H]3CC[C@]12C |  |  | Dose-dependent effect | 180 | Activity [13]: Toxic; hemolysis at 1 h, 0.006 mg/mL [15]: 5% |
